Laboratory results reported in the NIST ThermoML archive (doi:10.1021/je100042c).

Details: 101.33 kPa, Liquid; for viscosity: Concentric cylinders viscometry; for mass density: Vibrating tube method

CCCCCCCC/C=C\CCCCCCCC(=O)OCC [ethyl (Z)-9-octadeceneoate]
Details | mass density [kg/m3] | viscosity [mPa·s]
278.15 K | 880.5 | 10.39
283.15 K | 876.9 | 8.839
288.15 K | 873.2 | 7.595
293.15 K | 869.5 | 6.591
298.15 K | 865.9 | 5.769
303.15 K | 862.2 | 5.092
308.15 K | 858.5 | 4.525
313.15 K | 854.9 | 4.048
318.15 K | 851.3 | 3.641
323.15 K | 847.6 | 3.292
328.15 K | 844 | 2.99
333.15 K | 840.4 | 2.729
338.15 K | 836.8 | 2.502
343.15 K | 833.1 | 2.301
348.15 K | 829.5 | 2.124
353.15 K | 825.9 | 1.967
358.15 K | 822.3 | 1.827
363.15 K | 818.7 | 1.702

CCCCCCCCCC(=O)OCC [ethyl decanoate]
Details | mass density [kg/m3] | viscosity [mPa·s]
283.15 K | 872.5 | 2.896
288.15 K | 868.4 | 2.588
293.15 K | 864.3 | 2.326
298.15 K | 860.2 | 2.103
303.15 K | 856.2 | 1.911
308.15 K | 852.1 | 1.745
313.15 K | 848 | 1.6
318.15 K | 843.9 | 1.473
323.15 K | 839.8 | 1.36
328.15 K | 835.7 | 1.259
333.15 K | 831.6 | 1.169
338.15 K | 827.5 | 1.089
343.15 K | 823.4 | 1.017
348.15 K | 819.2 | 0.9516
353.15 K | 815.1 | 0.8929

CCCCCCCCCCCC(=O)OCC [ethyl dodecanoate]
Details | mass density [kg/m3] | viscosity [mPa·s]
283.15 K | 870.3 | 4.335
288.15 K | 866.4 | 3.813
293.15 K | 862.4 | 3.38
298.15 K | 858.5 | 3.015
303.15 K | 854.6 | 2.707
308.15 K | 850.7 | 2.446
313.15 K | 846.8 | 2.22
318.15 K | 842.9 | 2.024
323.15 K | 839 | 1.853
328.15 K | 835.1 | 1.704
333.15 K | 831.1 | 1.57
338.15 K | 827.2 | 1.453
343.15 K | 823.3 | 1.349
348.15 K | 819.4 | 1.254
353.15 K | 815.4 | 1.171

CCCCCCCCCCCCCCCC(=O)OCC [ethyl hexadecanoate]
Details | mass density [kg/m3] | viscosity [mPa·s]
303.15 K | 852.6 | 5.011
308.15 K | 848.9 | 4.44
313.15 K | 845.2 | 3.956
318.15 K | 841.5 | 3.547
323.15 K | 837.9 | 3.197
328.15 K | 834.2 | 2.897
333.15 K | 830.5 | 2.637
338.15 K | 826.9 | 2.412
343.15 K | 823.2 | 2.214
348.15 K | 819.5 | 2.039
353.15 K | 815.9 | 1.884
358.15 K | 812.2 | 1.746
363.15 K | 808.6 | 1.623

CCCCCCCCCCCCCCCCCC(=O)OCC [ethyl octadecanoate]
Details | mass density [kg/m3] | viscosity [mPa·s]
313.15 K | 844.8 | 5.082
318.15 K | 841.1 | 4.529
323.15 K | 837.5 | 4.057
328.15 K | 833.9 | 3.654
333.15 K | 830.3 | 3.307
338.15 K | 826.7 | 3.007
343.15 K | 823.1 | 2.744
348.15 K | 819.5 | 2.515
353.15 K | 815.9 | 2.313
358.15 K | 812.3 | 2.135
363.15 K | 808.7 | 1.978

CCCCCCCCCCCCCC(=O)OCC [ethyl tetradecanoate]
Details | mass density [kg/m3] | viscosity [mPa·s]
283.15 K | 868.7 | 6.26
288.15 K | 864.8 | 5.43
293.15 K | 861 | 4.749
298.15 K | 857.2 | 4.188
303.15 K | 853.4 | 3.721
308.15 K | 849.6 | 3.328
313.15 K | 845.8 | 2.993
318.15 K | 842 | 2.706
323.15 K | 838.2 | 2.458
328.15 K | 834.5 | 2.242
333.15 K | 830.7 | 2.055
338.15 K | 826.9 | 1.889
343.15 K | 823.1 | 1.743
348.15 K | 819.4 | 1.614
353.15 K | 815.6 | 1.499

CCCCC/C=C\C/C=C\CCCCCCCC(=O)OC [methyl (Z,Z)-9,12-octadecadienate]
Details | mass density [kg/m3] | viscosity [mPa·s]
278.15 K | 897.2 | 7.466
283.15 K | 893.5 | 6.466
288.15 K | 889.9 | 5.655
293.15 K | 886.2 | 4.982
298.15 K | 882.5 | 4.428
303.15 K | 878.8 | 3.961
308.15 K | 875.2 | 3.567
313.15 K | 871.5 | 3.227
318.15 K | 867.9 | 2.936
323.15 K | 864.3 | 2.682
328.15 K | 860.7 | 2.461
333.15 K | 857 | 2.266
338.15 K | 853.4 | 2.093
343.15 K | 849.8 | 1.94
348.15 K | 846.1 | 1.804
353.15 K | 842.5 | 1.682
358.15 K | 838.7 | –
363.15 K | 835.1 | –

CCCCCCCC/C=C\CCCCCCCC(=O)OC [methyl cis-9-octadecenoate]
Details | mass density [kg/m3] | viscosity [mPa·s]
283.15 K | 881.4 | 8.699
288.15 K | 877.7 | 7.452
293.15 K | 874.1 | 6.45
298.15 K | 870.4 | 5.634
303.15 K | 866.8 | 4.961
308.15 K | 863.1 | 4.401
313.15 K | 859.5 | 3.93
318.15 K | 855.9 | 3.531
323.15 K | 852.3 | 3.189
328.15 K | 848.7 | 2.894
333.15 K | 845.1 | 2.638
338.15 K | 841.5 | 2.416
343.15 K | 837.9 | 2.222
348.15 K | 834.3 | 2.05
353.15 K | 830.7 | 1.897

CCCCCCCCCC(=O)OC [methyl decanoate]
Details | mass density [kg/m3] | viscosity [mPa·s]
278.15 K | 884.7 | 2.989
283.15 K | 880.6 | 2.654
288.15 K | 876.4 | 2.373
293.15 K | 872.3 | 2.136
298.15 K | 868.2 | 1.933
303.15 K | 864.1 | 1.76
308.15 K | 860 | 1.609
313.15 K | 856 | 1.477
318.15 K | 851.9 | 1.361
323.15 K | 847.8 | 1.259
328.15 K | 843.6 | 1.167
333.15 K | 839.5 | 1.086
338.15 K | 835.3 | 1.013
343.15 K | 831.2 | 0.9477
348.15 K | 827 | 0.8886
353.15 K | 822.9 | 0.8342
358.15 K | 818.7 | 0.786
363.15 K | 814.5 | 0.7421

CCCCCCCCCCCC(=O)OC [methyl dodecanoate]
Details | mass density [kg/m3] | viscosity [mPa·s]
283.15 K | 877.7 | 4.068
288.15 K | 873.7 | 3.577
293.15 K | 869.8 | 3.167
298.15 K | 865.8 | 2.824
303.15 K | 861.8 | 2.536
308.15 K | 857.9 | 2.289
313.15 K | 853.9 | 2.078
318.15 K | 850 | 1.894
323.15 K | 846.1 | 1.735
328.15 K | 842.1 | 1.595
333.15 K | 838.1 | 1.471
338.15 K | 834.2 | 1.362
343.15 K | 830.2 | 1.265
348.15 K | 826.2 | 1.178
353.15 K | 822.3 | 1.1

CCCCCCCCCCCCCCCC(=O)OC [methyl hexadecanoate]
Details | mass density [kg/m3] | viscosity [mPa·s]
308.15 K | 854.5 | 4.212
313.15 K | 850.8 | 3.755
318.15 K | 847 | 3.368
323.15 K | 843.3 | 3.038
328.15 K | 839.6 | 2.754
333.15 K | 835.8 | 2.508
338.15 K | 832.1 | 2.295
343.15 K | 828.4 | 2.107
348.15 K | 824.7 | 1.942
353.15 K | 821 | 1.796
358.15 K | 817.3 | 1.666
363.15 K | 813.6 | 1.55

CCCCCCCCCCCCCCCCCC(=O)OC [methyl octadecanoate]
Details | mass density [kg/m3] | viscosity [mPa·s]
313.15 K | 849.8 | 4.986
318.15 K | 846.1 | 4.435
323.15 K | 842.5 | 3.965
328.15 K | 838.9 | 3.568
333.15 K | 835.3 | 3.225
338.15 K | 831.7 | 2.929
343.15 K | 828.1 | 2.672
348.15 K | 824.5 | 2.448
353.15 K | 820.9 | 2.25
358.15 K | 817.3 | 2.076
363.15 K | 813.7 | 1.922

CCCCCCCC(=O)OC [methyl octanoate]
Details | mass density [kg/m3] | viscosity [mPa·s]
283.15 K | 885.9 | 1.71
288.15 K | 881.5 | 1.559
293.15 K | 877.1 | 1.427
298.15 K | 872.8 | 1.313
303.15 K | 868.4 | 1.212
308.15 K | 864 | 1.123
313.15 K | 859.6 | 1.044
318.15 K | 855.2 | 0.9733
323.15 K | 850.8 | 0.9093
328.15 K | 846.4 | 0.8518
333.15 K | 841.9 | 0.7998
338.15 K | 837.5 | 0.7528
343.15 K | 833 | 0.7101
348.15 K | 828.5 | 0.6713
353.15 K | 824 | 0.6359

CCCCCCCCCCCCCC(=O)OC [methyl tetradecanoate]
Details | mass density [kg/m3] | viscosity [mPa·s]
298.15 K | 863.7 | 3.982
303.15 K | 859.9 | 3.543
308.15 K | 856 | 3.165
313.15 K | 852.2 | 2.845
318.15 K | 848.4 | 2.571
323.15 K | 844.6 | 2.334
328.15 K | 840.8 | 2.129
333.15 K | 837 | 1.95
338.15 K | 833.1 | 1.793
343.15 K | 829.3 | 1.655
348.15 K | 825.5 | 1.532
353.15 K | 821.8 | 1.423
